{"source": "ChEMBL document CHEMBL3400050", "about": "“The synthesis and evaluation of sesamol and benzodioxane derivatives as inhibitors of monoamine oxidase” (Bioorg Med Chem Lett, 2015)", "key": {"[1]": {"molecular_target": "T1, Amine oxidase [flavin-containing] B (Homo sapiens, UniProt P27338)", "T1 sequence (P27338 whole entry)": "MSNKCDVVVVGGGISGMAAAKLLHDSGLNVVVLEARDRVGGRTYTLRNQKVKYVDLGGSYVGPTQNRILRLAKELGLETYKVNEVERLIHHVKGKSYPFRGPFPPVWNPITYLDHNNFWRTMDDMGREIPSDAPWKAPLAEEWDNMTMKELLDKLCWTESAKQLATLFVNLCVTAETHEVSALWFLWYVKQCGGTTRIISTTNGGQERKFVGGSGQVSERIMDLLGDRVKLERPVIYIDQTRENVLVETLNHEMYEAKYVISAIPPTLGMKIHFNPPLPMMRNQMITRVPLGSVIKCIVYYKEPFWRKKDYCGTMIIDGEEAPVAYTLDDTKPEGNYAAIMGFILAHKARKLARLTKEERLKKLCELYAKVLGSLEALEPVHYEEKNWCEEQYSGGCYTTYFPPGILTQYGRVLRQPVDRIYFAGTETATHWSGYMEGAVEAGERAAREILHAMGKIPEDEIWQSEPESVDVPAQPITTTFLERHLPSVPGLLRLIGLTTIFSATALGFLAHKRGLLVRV", "assay": "Inhibition of human recombinant MAOB using kynuramine substrate assessed as reduction in MAO-generated 4-hydroxyquinoline level by fluorescence spectrophotometry; call rule not given here"}, "[2]": {"molecular_target": "T2, Amine oxidase [flavin-containing] A (Homo sapiens, UniProt P21397)", "T2 sequence (P21397 whole entry)": "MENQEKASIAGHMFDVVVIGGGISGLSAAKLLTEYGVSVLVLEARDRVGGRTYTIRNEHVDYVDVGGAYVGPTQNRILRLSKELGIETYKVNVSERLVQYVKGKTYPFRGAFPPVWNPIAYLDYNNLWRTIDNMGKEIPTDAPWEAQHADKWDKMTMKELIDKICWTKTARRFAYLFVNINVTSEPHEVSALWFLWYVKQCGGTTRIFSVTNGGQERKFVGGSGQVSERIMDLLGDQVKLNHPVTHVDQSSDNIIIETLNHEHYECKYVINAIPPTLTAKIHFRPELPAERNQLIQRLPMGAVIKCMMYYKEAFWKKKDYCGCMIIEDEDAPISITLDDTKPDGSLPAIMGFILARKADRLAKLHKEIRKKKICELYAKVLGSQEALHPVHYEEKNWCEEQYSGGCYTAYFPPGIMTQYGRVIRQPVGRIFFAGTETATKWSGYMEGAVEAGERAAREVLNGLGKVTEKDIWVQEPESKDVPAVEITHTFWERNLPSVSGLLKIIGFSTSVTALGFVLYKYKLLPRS", "assay": "Inhibition of human recombinant MAOA at 100 uM using kynuramine substrate assessed as reduction in MAO-generated 4-hydroxyquinoline level by fluorescence spectrophotometry"}, "Homo sapiens": {"species_on_record": "Homo sapiens", "assay": "Selectivity index, ratio of IC50 for human recombinant MAOA to IC50 for human recombinant MAOB"}, "[3]": {"molecular_target": "T2, Amine oxidase [flavin-containing] A", "assay": "Inhibition of human recombinant MAOA using kynuramine substrate assessed as reduction in MAO-generated 4-hydroxyquinoline level by fluorescence spectrophotometry"}, "[4]": {"molecular_target": "T1, Amine oxidase [flavin-containing] B", "assay": "Reversible inhibition of human recombinant MAOB pre-incubated for 15 mins at 4 times IC50 level subsequently dialysed for 24 hrs followed by two fold dilution with kynuramine substrate assessed as enzyme catalytic activity by measuring 4-hydroxyquinoline level after 20 mins by fluorescence spectrophotometry", "set-up": "scale not given: the % may be the effect or the level left"}, "[5]": {"molecular_target": "T1, Amine oxidase [flavin-containing] B", "assay": "Reversible inhibition of human recombinant MAOB pre-incubated for 15 mins at 4 times IC50 level using kynuramine substrate assessed as enzyme catalytic activity by measuring 4-hydroxyquinoline level after 20 mins by fluorescence spectrophotometry", "set-up": "scale not given: the % may be the effect or the level left"}, "[6]": {"molecular_target": "T1, Amine oxidase [flavin-containing] B", "assay": "Competitive inhibition of human recombinant MAOB using kynuramine substrate assessed as reduction in MAO-generated 4-hydroxyquinoline level by Lineweaver-Burk plot"}}, "data": [{"smiles": "c1ccc(OCCOc2ccc3c(c2)OCO3)cc1", "values": [{"measurement": "IC50", "setting": "[1]", "result": 1140, "unit": "nM"}, {"measurement": "inhibition (INH)", "setting": "[2]", "result": "Not Active"}, {"measurement": "Ratio IC50", "setting": "Homo sapiens", "result": "> 88"}]}, {"smiles": "c1ccc(COc2ccc3c(c2)OCCO3)cc1", "values": [{"measurement": "IC50", "setting": "[3]", "result": 36, "unit": "µM"}, {"measurement": "IC50", "setting": "[1]", "result": 168, "unit": "nM"}, {"measurement": "Ratio IC50", "setting": "Homo sapiens", "result": 215}]}, {"smiles": "c1ccc(CCOc2ccc3c(c2)OCO3)cc1", "values": [{"measurement": "IC50", "setting": "[3]", "result": 87.7, "unit": "µM"}, {"measurement": "IC50", "setting": "[1]", "result": 3310, "unit": "nM"}, {"measurement": "Ratio IC50", "setting": "Homo sapiens", "result": 26}]}, {"smiles": "Clc1ccc(OCCOc2ccc3c(c2)OCO3)cc1", "values": [{"measurement": "IC50", "setting": "[1]", "result": 1690, "unit": "nM"}, {"measurement": "inhibition (INH)", "setting": "[2]", "result": "Not Active"}, {"measurement": "Ratio IC50", "setting": "Homo sapiens", "result": "> 59"}]}, {"smiles": "c1ccc(CCCOc2ccc3c(c2)OCCO3)cc1", "values": [{"measurement": "IC50", "setting": "[3]", "result": 70.4, "unit": "µM"}, {"measurement": "IC50", "setting": "[1]", "result": 947, "unit": "nM"}, {"measurement": "Ratio IC50", "setting": "Homo sapiens", "result": 74}]}, {"smiles": "Clc1cccc(COc2ccc3c(c2)OCCO3)c1", "values": [{"measurement": "IC50", "setting": "[3]", "result": 13.2, "unit": "µM"}, {"measurement": "IC50", "setting": "[1]", "result": 57, "unit": "nM"}, {"measurement": "Ratio IC50", "setting": "Homo sapiens", "result": 232}]}, {"smiles": "Brc1cccc(COc2ccc3c(c2)OCO3)c1", "values": [{"measurement": "IC50", "setting": "[3]", "result": 38.4, "unit": "µM"}, {"measurement": "IC50", "setting": "[1]", "result": 164, "unit": "nM"}, {"measurement": "Ratio IC50", "setting": "Homo sapiens", "result": 234}]}, {"smiles": "c1ccc(CCOc2ccc3c(c2)OCCO3)cc1", "values": [{"measurement": "IC50", "setting": "[3]", "result": 27.8, "unit": "µM"}, {"measurement": "IC50", "setting": "[1]", "result": 48, "unit": "nM"}, {"measurement": "Ratio IC50", "setting": "Homo sapiens", "result": 579}]}, {"smiles": "Clc1ccc(OCCOc2ccc3c(c2)OCCO3)cc1", "values": [{"measurement": "IC50", "setting": "[1]", "result": 348, "unit": "nM"}, {"measurement": "inhibition (INH)", "setting": "[2]", "result": "Not Active"}, {"measurement": "Ratio IC50", "setting": "Homo sapiens", "result": "> 287"}]}, {"smiles": "c1ccc(OCCOc2ccc3c(c2)OCCO3)cc1", "values": [{"measurement": "IC50", "setting": "[3]", "result": 69.4, "unit": "µM"}, {"measurement": "IC50", "setting": "[1]", "result": 109, "unit": "nM"}, {"measurement": "Ratio IC50", "setting": "Homo sapiens", "result": 637}]}, {"smiles": "Brc1cccc(COc2ccc3c(c2)OCCO3)c1", "values": [{"measurement": "IC50", "setting": "[3]", "result": 16.9, "unit": "µM"}, {"measurement": "IC50", "setting": "[1]", "result": 45, "unit": "nM"}, {"measurement": "Activity", "setting": "[4]", "result": 87, "unit": "%"}, {"measurement": "Activity", "setting": "[5]", "result": 21, "unit": "%"}, {"measurement": "Ki", "setting": "[6]", "result": 41, "unit": "nM"}, {"measurement": "Ratio IC50", "setting": "Homo sapiens", "result": 375}]}, {"smiles": "Brc1ccc(OCCOc2ccc3c(c2)OCO3)cc1", "values": [{"measurement": "IC50", "setting": "[1]", "result": 7070, "unit": "nM"}, {"measurement": "inhibition (INH)", "setting": "[2]", "result": "Not Active"}, {"measurement": "Ratio IC50", "setting": "Homo sapiens", "result": "> 14"}]}, {"smiles": "c1ccc(COc2ccc3c(c2)OCO3)cc1", "values": [{"measurement": "IC50", "setting": "[1]", "result": 513, "unit": "nM"}, {"measurement": "inhibition (INH)", "setting": "[2]", "result": "Not Active"}, {"measurement": "Ratio IC50", "setting": "Homo sapiens", "result": "> 195"}]}, {"smiles": "c1ccc(CCCOc2ccc3c(c2)OCO3)cc1", "values": [{"measurement": "IC50", "setting": "[3]", "result": 77.1, "unit": "µM"}, {"measurement": "IC50", "setting": "[1]", "result": 7290, "unit": "nM"}, {"measurement": "Ratio IC50", "setting": "Homo sapiens", "result": 11}]}, {"smiles": "Brc1ccc(OCCOc2ccc3c(c2)OCCO3)cc1", "values": [{"measurement": "IC50", "setting": "[1]", "result": 941, "unit": "nM"}, {"measurement": "inhibition (INH)", "setting": "[2]", "result": "Not Active"}, {"measurement": "Ratio IC50", "setting": "Homo sapiens", "result": "> 106"}]}, {"smiles": "Clc1cccc(COc2ccc3c(c2)OCO3)c1", "values": [{"measurement": "IC50", "setting": "[3]", "result": 51.8, "unit": "µM"}, {"measurement": "IC50", "setting": "[1]", "result": 248, "unit": "nM"}, {"measurement": "Ratio IC50", "setting": "Homo sapiens", "result": 209}]}]}
